{
  "source": "ChEMBL document CHEMBL1201862",
  "about": "“PubChem BioAssay data set” (2004)",
  "key": {"[1]": {"target": "T1, Orexin/Hypocretin receptor type 1 (Homo sapiens, UniProt O43613)", "T1 sequence (O43613 whole entry)": "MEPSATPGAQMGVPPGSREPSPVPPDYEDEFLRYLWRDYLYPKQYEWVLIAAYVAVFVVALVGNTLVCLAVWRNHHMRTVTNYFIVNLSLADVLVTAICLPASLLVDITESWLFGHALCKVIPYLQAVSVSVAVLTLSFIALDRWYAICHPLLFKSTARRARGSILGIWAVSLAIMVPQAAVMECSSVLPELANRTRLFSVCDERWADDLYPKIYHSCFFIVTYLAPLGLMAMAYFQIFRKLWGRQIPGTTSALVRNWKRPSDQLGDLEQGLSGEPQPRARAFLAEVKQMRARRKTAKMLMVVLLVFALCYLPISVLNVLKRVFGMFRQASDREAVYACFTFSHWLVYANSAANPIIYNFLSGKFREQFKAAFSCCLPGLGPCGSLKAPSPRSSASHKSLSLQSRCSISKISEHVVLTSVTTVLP", "test": "(§1) Fluorescence-based cell-based high throughput dose response assay for antagonists of the orexin 1 receptor (OX1R; HCRTR1). [Related pubchem assays (depositor defined):AID434989, AID435008, AID463079, AID485270, AID492963, AID492964, AID492965, AID493232, AID504717, AID504718]", "assay_type": "functional"}, "CHO-K1": {"test_system": "CHO-K1", "test": "(§2) Counterscreen for antagonists of the orexin 1 receptor (OX1R; HCRTR1): Homogeneous time resolved fluorescence (HTRF)-based cell-based dose response assay to identify antagonists of the parental CHO-K1 cell line. [Related pubchem assays (depositor defined):AID434989, AID435008, AID463079, AID485270, AID492963, AID492964, AID492965, AID493232, AID504699, AID504701]", "assay_type": "functional", "settings": "Cricetulus griseus"}, "Orexin receptor type 2 [2]": {"target": "T2, Orexin receptor type 2 (Homo sapiens, UniProt O43614)", "T2 sequence (O43614 whole entry)": "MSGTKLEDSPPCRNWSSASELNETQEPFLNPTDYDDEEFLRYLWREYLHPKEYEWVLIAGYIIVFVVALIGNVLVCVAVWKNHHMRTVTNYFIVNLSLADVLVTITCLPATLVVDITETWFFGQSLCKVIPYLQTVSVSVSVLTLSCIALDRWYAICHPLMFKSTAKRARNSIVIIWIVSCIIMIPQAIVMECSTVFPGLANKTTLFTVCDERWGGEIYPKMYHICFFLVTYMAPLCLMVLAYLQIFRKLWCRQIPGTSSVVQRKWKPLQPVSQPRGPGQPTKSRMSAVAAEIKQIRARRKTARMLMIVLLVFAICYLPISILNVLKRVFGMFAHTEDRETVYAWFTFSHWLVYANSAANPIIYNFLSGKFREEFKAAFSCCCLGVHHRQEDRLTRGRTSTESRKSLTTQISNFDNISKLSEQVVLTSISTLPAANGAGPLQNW", "test": "Counterscreen assay for antagonists of the orexin 1 receptor (OX1R; HCRTR1): Homogeneous Time Resolved Fluorescence (HTRF)-based cell-based dose response assay for antagonists of the orexin 2 receptor (OX2R; HCRTR2), run by assay provider.", "assay_type": "functional"}, "[3]": {"target": "T1, Orexin/Hypocretin receptor type 1", "test": "as §1, with “Homogeneous Time Resolved Fluorescence (HTRF)-based” for “Fluorescence-based”", "assay_type": "functional"}, "[4]": {"test": "as §2, with “Fluorescence-based” for “Homogeneous time resolved fluorescence (HTRF)-based”, “cell-based high throughput” for “cell-based”, “CHO” for “CHO-K1”", "assay_type": "functional"}, "Orexin receptor type 2 [5]": {"target": "T2, Orexin receptor type 2", "test": "Counterscreen assay for antagonists of the orexin 1 receptor (OX1R; HCRTR1): Fluorescence-based cell-based dose response assay for antagonists of the orexin 2 receptor (OX2R; HCRTR2), run by assay provider.", "assay_type": "functional"}, "HEK293 [6]": {"test_system": "HEK293", "test": "optical interference in Abeta FP readout, dose response, artefact control for IDE activator project, biochemical, fluorescence polarization (AID 588442)", "assay_type": "functional, cell-based", "settings": "Homo sapiens"}, "Insulin-degrading enzyme [7]": {"target": "T3, Insulin-degrading enzyme (Homo sapiens, UniProt P14735)", "T3 sequence (P14735 whole entry)": "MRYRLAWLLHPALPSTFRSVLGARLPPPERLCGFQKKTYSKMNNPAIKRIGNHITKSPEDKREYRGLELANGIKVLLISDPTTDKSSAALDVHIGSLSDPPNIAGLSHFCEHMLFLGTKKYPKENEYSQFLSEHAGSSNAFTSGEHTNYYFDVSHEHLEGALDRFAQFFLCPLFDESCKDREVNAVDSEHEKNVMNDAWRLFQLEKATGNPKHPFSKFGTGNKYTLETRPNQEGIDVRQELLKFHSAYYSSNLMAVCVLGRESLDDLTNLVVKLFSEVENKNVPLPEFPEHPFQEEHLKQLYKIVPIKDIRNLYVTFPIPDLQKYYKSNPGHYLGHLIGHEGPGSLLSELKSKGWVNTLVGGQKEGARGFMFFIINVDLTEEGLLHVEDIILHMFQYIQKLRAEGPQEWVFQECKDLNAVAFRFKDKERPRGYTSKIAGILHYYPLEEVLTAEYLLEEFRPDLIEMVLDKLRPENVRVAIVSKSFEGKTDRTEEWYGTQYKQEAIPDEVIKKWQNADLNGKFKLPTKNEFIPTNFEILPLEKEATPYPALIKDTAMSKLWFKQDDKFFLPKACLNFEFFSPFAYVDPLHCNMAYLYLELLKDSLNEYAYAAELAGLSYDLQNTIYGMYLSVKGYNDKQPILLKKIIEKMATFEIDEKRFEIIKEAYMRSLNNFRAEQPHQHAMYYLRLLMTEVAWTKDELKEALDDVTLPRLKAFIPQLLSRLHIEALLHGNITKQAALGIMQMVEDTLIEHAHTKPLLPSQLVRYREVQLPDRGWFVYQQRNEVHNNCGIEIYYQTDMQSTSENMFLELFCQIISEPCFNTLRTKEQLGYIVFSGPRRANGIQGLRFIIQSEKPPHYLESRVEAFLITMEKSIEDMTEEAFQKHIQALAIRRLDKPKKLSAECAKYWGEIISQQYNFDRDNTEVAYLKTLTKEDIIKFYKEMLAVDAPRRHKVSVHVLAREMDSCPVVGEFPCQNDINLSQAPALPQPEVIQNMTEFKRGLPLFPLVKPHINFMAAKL", "test": "activators of endogenous IDE in HEK cells, dose response, cell-based, fluorescence polarization (AID 588439)", "assay_type": "functional"}, "Insulin-degrading enzyme [8]": {"target": "T3, Insulin-degrading enzyme", "test": "activators of recombinant IDE enzyme, dose response, counter-screen for IDE activator project, biochemical, fluorescence polarization (AID 588681)"}, "HEK293 [9]": {"test_system": "HEK293", "test": "HEK cell cytotoxicity by LDH release, dose response, cytotoxicity control for IDE activator project, fluorescence, HEK cells (AID 588440)", "assay_type": "functional, cell-based", "settings": "Homo sapiens"}, "[10]": {"target": "T4, High affinity choline transporter 1 (Homo sapiens, UniProt Q9GZV3)", "T4 sequence (Q9GZV3 whole entry)": "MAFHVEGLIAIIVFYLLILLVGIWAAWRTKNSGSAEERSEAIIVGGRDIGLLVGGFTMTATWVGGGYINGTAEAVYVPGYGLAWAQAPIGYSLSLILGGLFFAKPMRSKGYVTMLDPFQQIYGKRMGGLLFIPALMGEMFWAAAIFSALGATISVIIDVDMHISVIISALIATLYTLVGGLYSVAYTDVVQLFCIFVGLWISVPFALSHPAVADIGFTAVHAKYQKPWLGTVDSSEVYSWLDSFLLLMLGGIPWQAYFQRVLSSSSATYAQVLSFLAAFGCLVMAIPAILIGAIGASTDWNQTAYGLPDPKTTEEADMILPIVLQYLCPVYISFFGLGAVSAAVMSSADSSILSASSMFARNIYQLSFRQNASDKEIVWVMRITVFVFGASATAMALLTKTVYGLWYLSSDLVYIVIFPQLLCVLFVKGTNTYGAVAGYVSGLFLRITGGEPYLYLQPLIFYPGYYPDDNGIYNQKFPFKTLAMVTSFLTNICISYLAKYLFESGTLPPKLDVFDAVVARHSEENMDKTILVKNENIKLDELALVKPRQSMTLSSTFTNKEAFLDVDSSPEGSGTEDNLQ", "test": "CHT activators, dose response, cell-based, 10-point CRC, membrane potential dye (AID 602376)", "assay_type": "functional"}, "[11]": {"test": "microbe, parasite or virus in culture", "assay_type": "functional", "settings": "Mycobacterium tuberculosis"}, "[12]": {"test": "Luminescence Cell-Based Dose Retest to Confirm Inhibitors of Cancer Stem Cells. [Related pubchem assays (depositor defined):AID2717, AID2721]", "assay_type": "functional", "settings": "Homo sapiens"}, "[13]": {"target": "T5, Ubiquitin-conjugating enzyme E2 N (Homo sapiens, UniProt P61088)", "T5 sequence (P61088 whole entry)": "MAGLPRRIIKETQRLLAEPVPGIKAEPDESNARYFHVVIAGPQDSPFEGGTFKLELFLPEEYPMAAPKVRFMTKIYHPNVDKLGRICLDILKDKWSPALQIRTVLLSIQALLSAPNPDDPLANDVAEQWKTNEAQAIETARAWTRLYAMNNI", "assay_type": "functional"}, "[14]": {"test": "MDA-MB-231 cell growth inhibition, dose response, cytotoxicity control for RAD54 inhibitor project, CellTiter-Glo luminescence, cherry-pick (AID 651692)", "assay_type": "functional, cell-based"}},
  "note": "Active and inactive are the calls of the source.",
  "data": [
    {"compound": "O=[N+]([O-])c1cccc(-c2nc(-c3cccs3)c(-c3cccs3)[nH]2)c1", "values": [
      {"measurement": "IC50", "setting": "[1]", "result": "> 5.53 µM (active)"},
      {"measurement": "IC50", "setting": "CHO-K1", "result": "> 66.2 µM (inactive)"},
      {"measurement": "IC50", "setting": "Orexin receptor type 2 [2]", "result": "3.2 µM (active)"},
      {"measurement": "IC50", "setting": "[3]", "result": "6.65 µM (active)"},
      {"measurement": "IC50", "setting": "[4]", "result": "> 49.8 µM (inactive)"},
      {"measurement": "IC50", "setting": "Orexin receptor type 2 [5]", "result": "28.8 µM (inactive)"}
    ]},
    {"compound": "O=C(NCC1CC1)c1onc(CSc2ccc(F)c(F)c2)c1C(=O)NCC1CC1", "values": [
      {"measurement": "EC50", "setting": "HEK293 [6]", "result": "> 54.7 µM (inactive)"},
      {"measurement": "EC50", "setting": "Insulin-degrading enzyme [7]", "result": "> 54.7 µM (inactive)"},
      {"measurement": "EC50", "setting": "Insulin-degrading enzyme [8]", "result": "> 54.7 µM (inactive)"},
      {"measurement": "IC50", "setting": "HEK293 [9]", "result": "> 89.3 µM (inactive)"}
    ]},
    {"compound": "CC(C)c1ccccc1NC(=O)Cn1c(-c2ccccc2Cl)nc2ccccc21", "values": [
      {"measurement": "EC50", "setting": "[10]", "result": "18.3 µM (active)"}
    ]},
    {"compound": "Cc1ccc(C)c(N2CCN(C(=S)Nc3ccc4nc(N5CCN(C)CC5)cc(C)c4c3)CC2)c1", "values": [
      {"measurement": "EC50", "setting": "HEK293 [6]", "result": "> 55.9 µM (inactive)"},
      {"measurement": "CC50", "setting": "[11]", "result": "17.1 µM (active)"},
      {"measurement": "AC50", "setting": "[12]", "result": "13.3 µM (active)"},
      {"measurement": "EC50", "setting": "Insulin-degrading enzyme [7]", "result": "> 54.7 µM (inactive)"},
      {"measurement": "EC50", "setting": "Insulin-degrading enzyme [8]", "result": "> 54.7 µM (inactive)"},
      {"measurement": "IC50", "setting": "HEK293 [9]", "result": "18 µM (inactive)"},
      {"measurement": "IC50", "setting": "[13]", "result": "> 20 µM (inactive)"},
      {"measurement": "AC50", "setting": "[14]", "result": "34.8 µM (active)"}
    ]}
  ]
}
